# Legend:
# Type in all cases: cell-based, human
# [1] = tested on: HNSCC tumor tissue; assay: Granzyme B and Perforin secretion assays, HNSCC tumor sections in tumor microenvironment platform; details: 48 hours
# Protocol: FIGS. 9A and 9B show quantification of results for Granzyme B and Perforin secretion assays for HNSCC tumor tissue cultured in the tumor microenvironment platform treated with Pembrolizumab, Nivolumab, or IgG control for 24 or 48 hours.
# HNSCC tumor sections from the same patient cultured for 24 or 48 hours in the tumor microenvironment platform with Pembrolizumab, Nivolumab, or IgG as control were assayed for Granzyme B and Perforin secretion. Results are shown in FIG. 9A for the tumor microenvironment platform with tumor tissue from a predicted responder and FIG. 9B for the tumor microenvironment platform with tumor tissue from a predicted non-responder. After treatment with Pembrolizumab for 48 hours, there was an increase in both Granzyme B and Perforin secretion in the tumor microenvironment platform with tissue from the predicted responder compared to treatment with the control IgG. By contrast, at 48 hours in the tumor microenvironment platform with tissue from the predicted non-responder there was no increase in Granzyme B or Perforin secretion for treatment with either Pembrolizumab or Nivolumab.
# [2] = tested on: HNSCC tumor tissue; assay: FACS analysis for CD3 and CD8 (CD8+ T cell infiltration) in tumor microenvironment platform; details: vs IgG control
# Protocol: The effect of Pembrolizumab and Nivolumab on CD8^+ T cell tumor infiltration was then evaluated. Tumor sections from the same patient cultured for 72 hours in the tumor microenvironment platform were treated with Pembrolizumab, Nivolumab, or IgG as control and stained for H&E, Ki67, Caspase 3, and CD8 at day 3 in culture (T3). Baseline staining was determined at TO. […] To further elucidate the effects of the anti-PD-1 antibodies, FACS analysis was performed on tumor tissue from patient 2941 and patient 2942 treated with either Pembrolizumab, Nivolumab, or IgG control. […] By contrast, there was no effect of either Pembrolizumab or Nivolumab on CD8^+ T cell infiltration for patient 2942, further highlighting the differential response between individuals to PD-1 blockade. CD8^+ T cell infiltration was evaluated in the tumor microenvironment platform with tumor tissue from the same patient, and comparisons for control vs Nivo, control vs Pembro, Nivo vs Pembro, and control vs Nivo vs Pembro for multiple patients are shown in FIG. 6 (each line represents results from the tumor microenvironment platform cultured with tumor tissue from a single individual).
# [3] = tested on: HNSCC tumor tissue; assay: M-score clinical outcome predictor: tumor microenvironment platform assays (WST-1, LDH, ATP, glucose uptake, Caspase 3/8, Ki67, H&E) input into machine-trained algorithm; parameters: scale not given here
# [4] = tested on: PBNCs; assay: FACS analysis for CD25, CD127 and FOXP3 expression, PBNCs
# Protocol: The effect of treatment with Nivolumab and Pembrolizumab on CD25, CD127, and FOXP3 expression was then evaluated. Tumor sections or PBNCs from the same patient cultured for 3 days in the tumor microenvironment platform were treated with Pembrolizumab, Nivolumab, or IgG control for one day followed by FACS analysis for expression of CD25, CD127, and FOXP3.
# [5] = predicted responder, compared to control IgG
Substance,Granzyme B secretion ([1]; predicted non-responder),Perforin secretion ([1]; predicted non-responder),CD8^+ T cell infiltration (FACS) ([2]; patient 2941),CD8^+ T cell infiltration (FACS) ([2]; patient 2942),M-score ([3]; Patient ID 2916),M-score ([3]; Patient ID 2926),M-score ([3]; Patient ID 2939),M-score ([3]; Patient ID 2942),M-score ([3]; Patient ID 2950),M-score ([3]; Patient ID 2963),M-score ([3]; Patient ID 2979),M-score ([3]; Patient ID 2980),"CD25^+/FOXP3^− PBMCs (% total cells) ([4]; Non-Responder, control 3.67)","CD25^+/CD127^+ PBMCs (% total cells) ([4]; Non-Responder, control 14.6)","CD25^+/CD127^− PBMCs (% total cells) ([4]; Non-Responder, control 15.1)","CD25^−/FOXP3^− PBMCs (% total cells) ([4]; Non-Responder, control 18.2)","CD25^+/FOXP3^+ PBMCs (% total cells) ([4]; Non-Responder, control 22.1)","CD25^−/CD127^+ PBMCs (% total cells) ([4]; Non-Responder, control 26.2)","CD25^−/CD127^− PBMCs (% total cells) ([4]; Non-Responder, control 44.1)","CD25^− FOXP3^+ PBMCs (% total cells) ([4]; Non-Responder, control 56.0)",also measured
Pembrolizumab,no increase,no increase,but not Pembrolizumab,no effect,8,28,4,18,13,9,27,19,2.8,25.6,7.71,10.9,29.1,45.3,21.4,57.2,"Granzyme B secretion [1, 5]: increase; Perforin secretion [1, 5]: increase; CD25^+/FOXP3^− PBMCs (% total cells) ([4]; Responder, control 3.04): 3.94 % total cells; CD25^+/CD127^− PBMCs (% total cells) ([4]; Responder, control 11.7): 7.77 % total cells; CD25^+/CD127^+ PBMCs (% total cells) ([4]; Responder, control 16.8): 20.4 % total cells; CD25^+/FOXP3^+ PBMCs (% total cells) ([4]; Responder, control 21.7): 22.1 % total cells; CD25^−/FOXP3^− PBMCs (% total cells) ([4]; Responder, control 23.2): 20.0 % total cells; CD25^−/CD127^+ PBMCs (% total cells) ([4]; Responder, control 24.8): 46.4 % total cells; CD25^−/CD127^− PBMCs (% total cells) ([4]; Responder, control 46.6): 25.4 % total cells; CD25^− FOXP3^+ PBMCs (% total cells) ([4]; Responder, control 52.1): 54.0 % total cells"
Nivolumab,no increase,no increase,increase,no effect,13,31,5,28,16,5,9,12,1.40,25.1,8.22,7.90,29.0,44.4,22.3,61.7,"CD25^+/FOXP3^− PBMCs (% total cells) ([4]; Responder, control 3.04): 8.91 % total cells; CD25^+/CD127^− PBMCs (% total cells) ([4]; Responder, control 11.7): 6.53 % total cells; CD25^+/CD127^+ PBMCs (% total cells) ([4]; Responder, control 16.8): 30.4 % total cells; CD25^+/FOXP3^+ PBMCs (% total cells) ([4]; Responder, control 21.7): 24.0 % total cells; CD25^−/FOXP3^− PBMCs (% total cells) ([4]; Responder, control 23.2): 29.8 % total cells; CD25^−/CD127^+ PBMCs (% total cells) ([4]; Responder, control 24.8): 44.2 % total cells; CD25^−/CD127^− PBMCs (% total cells) ([4]; Responder, control 46.6): 18.9 % total cells; CD25^− FOXP3^+ PBMCs (% total cells) ([4]; Responder, control 52.1): 37.3 % total cells"
